Assay results: US4269855A, “(3-Alkylamino-2-hydroxypropoxy)-furan-2-carboxylic acid anilides and physiologically tolerated acid addition salts thereof and medicaments containing them” (A. Nattermann & Cie. GmbH, priority 1979, dated 1981)
Counter-ions that a name gives are not always drawn.

Experiments:
β-receptor [1] = biological target: T1, β-receptor (Cavia porcellus, UniProt H0W3H1); test: Inhibition of isoprenalin-induced increase in contractile force, isolated guinea pig left auricle; parameters: species or system guinea pig (Pirbright White); conditions: Bath, isoprenalin 3.2×10^-8 molar, probit analysis, read-out: ED50, inhibition of increase in contractile force induced by isoprenaline
T1 sequence (H0W3H1 1-470): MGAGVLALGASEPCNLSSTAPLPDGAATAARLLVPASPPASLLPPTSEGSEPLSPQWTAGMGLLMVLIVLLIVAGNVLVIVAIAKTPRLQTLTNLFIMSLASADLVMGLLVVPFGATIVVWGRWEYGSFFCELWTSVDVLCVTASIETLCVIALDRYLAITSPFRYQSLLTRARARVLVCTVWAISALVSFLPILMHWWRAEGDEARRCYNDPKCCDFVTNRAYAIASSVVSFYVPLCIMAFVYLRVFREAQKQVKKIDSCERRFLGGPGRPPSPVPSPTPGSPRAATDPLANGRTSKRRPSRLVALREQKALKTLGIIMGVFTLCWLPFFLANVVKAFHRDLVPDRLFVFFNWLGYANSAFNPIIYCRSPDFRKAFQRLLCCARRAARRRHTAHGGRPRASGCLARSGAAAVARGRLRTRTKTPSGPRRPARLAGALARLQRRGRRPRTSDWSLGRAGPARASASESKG

β-receptor [2] = test: β-receptor blocking action, isolated organs and whole animal (overall statement); conditions: in words
Description: (§1) The ventricular pressure of mongrel dogs, anesthetized with chloralose-urethane, was determined, together with other circulation parameters, with the aid of a Millar tip catheter (type PC 350 A, Millar Instruments, Houston, Tex.) introduced into the left heart ventricle, and the maximum rate of pressure increase (dp/dtmax) was determined by differentiation (HSE operational amplifier, Hugstetten). This rate serves as a measure of the contractile force.

in vivo = test: in vivo
Description: The acute toxicity was determined on NMRI mice by intravenous or oral administration of increasing doses of the compounds of the invention. The death rates were determined within the 7-day follow-up period and the average lethal dose was determined by probit analysis.

β-receptor [3] = biological target: β-receptor (Canis lupus familiaris, UniProt P79148); test: Inhibition of isoprenalin-induced increase in contractile force (dp/dtmax), anaesthetised dogs; assay type: in vivo, mongrel dogs; conditions: for ED50: dog, anaesthetised dogs, isoprenalin 0.5 μg/kg i.v., determined graphically
Chain of β-receptor (Canis lupus familiaris, UniProt P79148) (P79148 whole entry): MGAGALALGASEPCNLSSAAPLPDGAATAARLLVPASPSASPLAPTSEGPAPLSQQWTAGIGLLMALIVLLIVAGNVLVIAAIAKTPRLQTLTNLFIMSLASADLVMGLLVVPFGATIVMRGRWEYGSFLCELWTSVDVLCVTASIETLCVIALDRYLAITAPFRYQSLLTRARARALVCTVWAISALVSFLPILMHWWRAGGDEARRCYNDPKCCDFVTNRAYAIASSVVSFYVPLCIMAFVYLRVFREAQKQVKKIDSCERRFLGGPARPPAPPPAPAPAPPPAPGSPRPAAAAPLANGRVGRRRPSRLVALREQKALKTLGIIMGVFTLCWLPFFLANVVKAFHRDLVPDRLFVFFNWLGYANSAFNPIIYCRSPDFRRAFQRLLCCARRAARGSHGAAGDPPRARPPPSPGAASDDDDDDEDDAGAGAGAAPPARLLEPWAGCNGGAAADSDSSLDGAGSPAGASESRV
Description: as §1

β-receptor [4] = biological target: T1, β-receptor; test: Inhibition of isoprenalin-induced increase in pulse rate, isolated guinea pig right auricle; parameters: species or system guinea pig (Pirbright White); conditions: Bath, isoprenalin 5.8×10^-9 molar, probit analysis, read-out: ED50, inhibition of increase in pulse rate induced by isoprenalin

Structure (SMILES) | IC50 (β-receptor [1]) [nM] | β-receptor blocking action / pharmacological activity (β-receptor [2]) | selectivity ratio (in vivo; in vivo) | toxicity (in vivo; in words) | LD50 at 168 h (in vivo; mouse, in vivo, iv) [mg/kg] | LD50 at 168 h (in vivo; mouse, in vivo, po) [mg/kg] | "therapeutic range" quotient (LD50/ED50), times as high as the compounds already known (in vivo; versus propranolol hydrochloride and practolol hydrochloride) | ED50 (β-receptor [3]; intraduodenal) [mg/kg] | ED50 (β-receptor [3]; intravenous) [mg/kg] | action when administered intraduodenally (β-receptor [3]; intraduodenal, in words) | IC50 (β-receptor [4]) [nM] | LD50, acute toxicity (in vivo; mouse, in vivo, iv, 168 h) [mg/kg]
CC(C)(C)NCC(O)COc1ccccc1NC(=O)c1ccco1 (centres unmarked) [Example 1, 2'-(2-hydroxy-3-tert.-butylaminopropoxy)-furan-2-carboxylic acid anilide] | 290 | strong β-receptor blocking action both on isolated organs and on the whole animal | 4560 | very favorable | 55 | 502 | 1.5-3 times | 0.11 | 0.025 | good action | 98 | –
CC(=O)Nc1ccc(OCC(O)CNC(C)C)cc1 (centres unmarked) [Practolol Hydrochloride, reference compound] | 2300 | – | 3190 | – | – | 2870 | – | 0.9 | – | – | 710 | 148
